Holding throughout (assay): biochemical
For assay [1], the target named is DRB1*0901 (Homo sapiens, UniProt P01903+P01911, A100R/A103E/D57H/D86V/F55Y/F60I/F76Y/I96F/K127E/L162R/M171V/P40D/Q125H/Q99R/R33Q/R42F/S133A/S66N/T210M/V115G/W38K/Y107V/Y59G/Y89S). The class given is binding.
Assay [2] addresses DR1 (DRB1*0101) (Homo sapiens, UniProt P01903+P01911, A100R/D57E/F55L/F60I/F76Y/I96L/L162R/M171V/P40L/Q125E/R42F/V115G/Y59C). It counts as binding.
Assay [3] addresses DR7 (DRB1*0701) (Homo sapiens, UniProt P01903+P01911, A100R/A102G/A103Q/D57E/D86V/E43K/F76Y/K127E/L162R/M171V/P40G/Q125H/Q99D/R33Q/R42Y/R54Q/S133A/S66F/T210M/V115G/Y107V/Y59L/Y89S). It counts as binding.
The target of assay [4] is DRB4*0101 (Homo sapiens, UniProt P01903+P13762, G164S). It counts as binding.
The target of assay [5] is DRB1*1501 (Homo sapiens, UniProt P01903+P01911). It counts as binding.
Assay [6] concerns the target DRB5*0101 (Homo sapiens, UniProt P01903+Q30154). The following applies: Binding affinity DRB5 *0101.
Assay [7] concerns the target DR4w4 (DRB1*0401) (Homo sapiens, UniProt P01903+P01911, A100K/A169T/F76Y/I96L/K127E/L162R/M171V/N62H/P40V/Q125Y/R42H/S133A/S149N/S66Y/V115G/V209L/W38E). The class given is binding.
The target in assay [8] is DRB1*0802 (Homo sapiens, UniProt P01903+P01911, A100R/A103L/A169T/F76Y/H45Y/I96F/K41T/L162R/M171V/P40S/Q125H/Q178H/Q39Y/Q99D/R218S/R42G/S66Y/V115G/W38E). The class given is binding.
The target in assay [9] is DRB1*0405 (Homo sapiens, UniProt P01903+P01911, A100R/A169T/D86S/F76Y/I96L/K127E/L162R/M171V/N62H/P40V/Q125Y/R42H/S133A/S149N/S66Y/V115G/V209L/W38E). It counts as binding.
Assay [10] addresses DRB1*1101 (Homo sapiens, UniProt P01903+P01911, A100R/A169T/A87E/I96F/K41T/L162R/M171V/P40S/Q125H/Q178H/Q39Y/Q99D/R42S/S66Y/T262R/V115G/W38E). As to conditions: Binding affinity DRB1 *1101.
Assay [11] addresses DRB1*1302 (Homo sapiens, UniProt P01903+P01911, A100E/A169T/K41T/L162R/M171V/P40S/Q125H/Q178H/Q39Y/Q99D/R42S/S66N/T262R/V115G/W38E/Y61H). It counts as binding.

No end group written: not given here.

Sequence of DRB1*1101 (P01903 26-254 limits assumed, other chains not shown): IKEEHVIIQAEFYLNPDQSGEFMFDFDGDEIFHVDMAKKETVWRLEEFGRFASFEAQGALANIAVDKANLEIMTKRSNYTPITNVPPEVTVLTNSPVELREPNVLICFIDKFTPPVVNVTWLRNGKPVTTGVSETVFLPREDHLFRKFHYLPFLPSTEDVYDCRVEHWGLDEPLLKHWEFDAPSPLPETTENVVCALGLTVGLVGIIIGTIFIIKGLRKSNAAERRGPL
Sequence of DRB1*1302 (P01903 26-254 limits assumed, other chains not shown): as above

Turning to `CC[C@H](C)[C@H](NC(=O)[C@H](C)NC(=O)[C@H](CCCCN)NC(=O)[C@@H](N)Cc1c[nH]cn1)C(=O)N[C@@H](CCC(=O)O)C(=O)N[C@@H](CC(C)C)C(=O)N[C@@H](CCC(N)=O)C(=O)N[C@@H](CCSC)C(=O)N[C@@H](C)C(=O)N[C@@H](CC(C)C)C(=O)N[C@@H](CCC(N)=O)C(=O)NCC(=O)N[C@@H](CC(C)C)C(=O)N[C@@H](C)C(=O)N[C@@H](CCC(N)=O)C(=O)O` [Peptide 89.0160], the IC50 in assay [1] was above 20 µM; in [2] it was above 20 µM; in assay [3] it was above 20 µM; in assay [4] it was 3.47 µM; in [5], 1.28 µM; in assay [6], above 20 µM. The IC50 was 0.35 µM in assay [7], above 20 µM in assay [8], above 20 µM in [9] and 16.8 µM in [10].
On to HQVVPALSVSKAKAL [Peptide 89.0169], for which the IC50 in assay [1] is 1.62 µM; in [2] it was 0.099 µM; in [3], 4.73 µM; in assay [4], above 20 µM; in [5] it was above 20 µM; in [6], above 20 µM. The IC50 in assay [7] is 0.398 µM; in assay [8], above 20 µM; in assay [9], 15.5 µM; in [10], above 20 µM.
In the case of IAYYYAQLADSNSNA [Peptide 89.0072], the IC50 is 3.09 µM in [1]; 0.382 µM in assay [2]; 2.39 µM in assay [4]; 0.097 µM in [5]; above 20 µM in assay [11]; above 20 µM in assay [6]. Besides, the IC50 in assay [7] was 0.753 µM; in assay [8], 7.81 µM; in assay [9], 4.87 µM; in assay [10] it was above 20 µM.
Consider HQVVPSLVASKTKAF [Peptide 90.0023], for which the IC50 in assay [1] was above 20 µM; in [2] it was above 20 µM; in [3], 2.73 µM; in assay [4], above 20 µM; in assay [5], above 20 µM; in assay [6], above 20 µM. Moreover, the IC50 in [7], in [8], in assay [9] and in [10] was above 20 µM each time.
On to ETHMVIEPPKLRSAT [Peptide 89.0103], for which the IC50 was above 20 µM in [1]; above 20 µM in assay [3]; 3.91 µM in [4]; 1.46 µM in assay [11]; 2.87 µM in assay [6]; 0.778 µM in assay [7]. For the same compound, the IC50 in [8] came to 12.2 µM; in assay [9] it was 3.54 µM; in assay [10], 3.26 µM.
As to ILLYGAANTGKSLFG [Peptide 89.0018], the IC50 in assay [1] was above 20 µM; in assay [2] it was 0.23 µM; in [3], 6.13 µM; in assay [4], 5.06 µM; in assay [11] it was 2.69 µM; in assay [6], 1.58 µM. The IC50 is 0.15 µM in [7], 1.75 µM in assay [8], above 20 µM in [9] and 2.76 µM in [10].
In the case of TLAVSKNKALQAIEL [Peptide 89.0150], the IC50 was 5.22 µM in [1]; above 20 µM in assay [3]; 0.036 µM in [4]; above 20 µM in assay [5]; above 20 µM in [6]; above 20 µM in [7]. For the same compound, the IC50 is above 20 µM in [8], 1.64 µM in assay [9] and above 20 µM in assay [10].
Consider LIRMECALLYTAKQM [Peptide 89.0179], for which the IC50 in assay [1] is above 20 µM; in assay [2], 0.998 µM; in assay [3], 7.47 µM; in [4], above 20 µM; in assay [5], above 20 µM; in [11] it was above 20 µM. Besides, the IC50 in assay [6], in [8], in assay [9] and in [10] was above 20 µM each time.
For the compound SWGMVVLLLVRYKCG [Peptide 89.0005], the IC50 was 0.777 µM in assay [1]; 4.2 µM in assay [4]; 4.15 µM in assay [5]; above 20 µM in [6]; 4.67 µM in assay [7]; above 20 µM in [8]. Moreover, the IC50 is 0.401 µM in assay [9] and 2.11 µM in assay [10].
`CC(C)[C@H](NC(=O)[C@H](CO)NC(=O)[C@@H](NC(=O)[C@@H](N)[C@@H](C)O)C(C)C)C(=O)NCC(=O)N[C@H](C(=O)N[C@@H](C)C(=O)N[C@@H](CCCCN)C(=O)N[C@H](C(=O)N[C@@H](Cc1ccc(O)cc1)C(=O)NCC(=O)N[C@@H](CCC(N)=O)C(=O)N[C@H](C(=O)N[C@@H](CO)C(=O)N[C@@H](C)C(=O)O)[C@@H](C)O)[C@@H](C)O)[C@@H](C)O` [Peptide 89.0163]: the IC50 in [1] was above 20 µM; in assay [2], above 20 µM; in assay [3], above 20 µM; in assay [4], 0.229 µM; in assay [5], 8.71 µM; in [11] it was above 20 µM. For the same compound, the half-maximal inhibitory concentration (IC50) in assay [6] was above 20 µM; in [8], above 20 µM; in assay [9], 2.33 µM; in [10], above 20 µM.
Consider LLQLKCPPILLTSNI [Peptide 89.0091], for which the IC50 in assay [1] is above 20 µM; in assay [2], 0.037 µM; in [3], 0.613 µM; in assay [4] it was 0.122 µM; in assay [6], above 20 µM; in assay [7] it was 1.44 µM. Besides, the IC50 in [8] is 7.29 µM; in [9], above 20 µM; in assay [10], above 20 µM.
On to ELQMALETLSKSQYS [Peptide 89.0183], for which the IC50 was 0.204 µM in [1]; 0.08 µM in assay [2]; 3.14 µM in assay [3]; above 20 µM in assay [4]; 4.3 µM in assay [11]; 10.6 µM in [6]. Moreover, the IC50 in assay [7] turned out to be 0.434 µM; in assay [9], 3.29 µM.
In the case of CWTYFDNYMRNALDG [Peptide 89.0090], the IC50 in assay [1] was above 20 µM; in assay [3] it was 2.91 µM; in assay [4] it was 2.04 µM; in [11], above 20 µM; in [7] it was 3.59 µM; in assay [8], 3.69 µM. In addition, the IC50 in assay [9] was 4.88 µM; in assay [10], above 20 µM.
As for LNTVKIPPTVQISTG [Peptide 90.0028], the IC50 in assay [1] was 6.92 µM; in [2], 8.74 µM; in assay [3], above 20 µM; in assay [4], above 20 µM; in [11], 0.778 µM; in assay [6], above 20 µM. The IC50 in [7], in [8], in [9] and in [10] was above 20 µM throughout.
On to HQVVPPMAVSKAKAC [Peptide 90.0012], for which the IC50 in assay [2] is 0.68 µM; in [3], 0.434 µM; in [4], 0.645 µM; in assay [5], above 20 µM; in assay [11] it was 0.908 µM; in [6], 5.79 µM. Moreover, the half-maximal inhibitory concentration (IC50) in assay [7] is 2.34 µM; in [9], above 20 µM; in assay [10], 7.01 µM.
Turning to TPEWIEQQTVLQHSF [Peptide 89.0104], the IC50 in [1] is above 20 µM; in assay [2] it was 0.949 µM; in [3] it was above 20 µM; in [4], above 20 µM; in [5] it was 13 µM; in assay [11] it was above 20 µM. For the same compound, the IC50 in assay [6] was 5.46 µM; in assay [8], 14.1 µM; in assay [9], 2.88 µM; in assay [10], above 20 µM.
As for ITHIGHQVVPPMAVS [Peptide 90.0010], the IC50 was above 20 µM in [1]; 0.05 µM in [2]; 4.99 µM in assay [3]; 1.22 µM in assay [4]; 10.1 µM in assay [5]; above 20 µM in assay [6]. Besides, the IC50 is 0.235 µM in assay [7], 12.2 µM in assay [8], 17.1 µM in assay [9] and above 20 µM in assay [10].
